Test results reported in publication PMC8296573, “Synthesis and Biological Evaluation of Fingolimod Derivatives as Antibacterial Agents” (ACS Omega, 2021).
In brackets after ≈: the same amount, converted by molar mass. Read-outs that look alike come from different tables or passages of the source.

Tests used:
[1] = system: S. aureus ATCC 25923; experiment: Antibacterial activity, pre-exposure (planktonic cells and biofilm formation); format: cell-based, Staphylococcus aureus; details: for MIC / inhibition at 5 µM / inhibition at 10 µM / inhibition at 15 µM / inhibition at 25 µM: Staphylococcus aureus, ATCC25923; for inhibition at 5 µM / inhibition at 10 µM / inhibition at 15 µM / inhibition at 25 µM / Average inhibition %, biofilms viability / Average inhibition %, planktonic cells viability: pre-exposure, ± SD
How it was run: (§1)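 Pre-exposure format: compounds added with bacteria, 18 h aerobic at 37 °C with shaking. Planktonic growth read by OD and resazurin (20 μM final) fluorescence; biofilms by resazurin viability then crystal violet biomass (A595). Resazurin incubation time/temperature varied by species.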

[2] = system: P. aeruginosa ATCC 9027; experiment: Antibacterial activity, pre-exposure; format: cell-based, Pseudomonas aeruginosa; details: for Average inhibition %, biofilms viability / Average inhibition %, planktonic cells viability / inhibition at 50 µM / inhibition at 100 µM / inhibition at 150 µM / inhibition at 200 µM: P. aeruginosa ATCC 9027, pre-exposure, ± SD; for MIC / inhibition at 50 µM / inhibition at 100 µM / inhibition at 150 µM / inhibition at 200 µM: Pseudomonas aeruginosa; for inhibition at 50 µM / inhibition at 100 µM / inhibition at 150 µM / inhibition at 200 µM: ATCC9027
How it was run: as §1

[3] = system: A. baumannii NCTC 13423; experiment: Antibacterial activity, pre-exposure; format: cell-based, Acinetobacter baumannii; details: for Average inhibition %, biofilms viability / Average inhibition %, planktonic cells viability / inhibition at 10 µM / inhibition at 15 µM / inhibition at 25 µM / inhibition at 50 µM: A. baumannii NCTC 13423, pre-exposure, ± SD; for inhibition at 10 µM / inhibition at 15 µM / inhibition at 25 µM / inhibition at 50 µM / MIC: Acinetobacter baumannii, NCTC13423
How it was run: as §1

[4] = system: S. aureus ATCC 25923; experiment: Antibacterial activity, post-exposure on preformed 18-h-old biofilms; format: cell-based, Staphylococcus aureus; details: ± SD; for inhibition at 25 µM / inhibition at 50 µM / inhibition at 100 µM / inhibition at 200 µM: Staphylococcus aureus; for inhibition at 25 µM: ATCC25923, 25 µM; for inhibition at 50 µM: ATCC25923, 50 µM; for inhibition at 100 µM: ATCC25923, 100 µM; for inhibition at 200 µM: ATCC25923, 200 µM
How it was run: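 Biofilms grown 18 h without compound, medium then replaced and compound added for a further 24 h. Planktonic OD and resazurin (20 μM final) fluorescence (ex 560/em 590 nm) read; washed biofilms stained with 20 μM resazurin 30 min at 37 °C, then ethanol-fixed and crystal violet-stained, absorbance 595 nm.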

[5] = 10 µM, read-out: Average inhibition %, biofilms biomass
[6] = 10 µM, read-out: Average inhibition %, planktonic cells turbidity
[7] = 15 µM, read-out: Average inhibition %, biofilms biomass
[8] = 15 µM, read-out: Average inhibition %, planktonic cells turbidity
[9] = 25 µM, read-out: Average inhibition %, biofilms biomass
[10] = 25 µM, read-out: Average inhibition %, planktonic cells turbidity
[11] = 50 µM, read-out: Average inhibition %, biofilms biomass
[12] = 50 µM, read-out: Average inhibition %, planktonic cells turbidity
[13] = read-out: Average inhibition %, biofilms biomass
[14] = read-out: Average inhibition %, planktonic cells turbidity

CCCCCCCCOc1ccc(CCC(N)(CO)CO)cc1 [Compound 48, 2-Amino-2-[4-(octyloxy)phenethyl]propane-1,3-diol]
MIC ([1]; lowest concentration with no visible growth (>90% inhibition of turbidity and viability of planktonic cells), 18 h, read-out: MIC S. aureus ATCC 25923): 15 to 25 µM (≈ 4.85 to 8.09 µg/mL)
inhibition at 5 µM ([1]; 5 µM, read-out: Average inhibition %, biofilms biomass): 28.7 ± 25.2%
inhibition at 5 µM ([1]; 5 µM, read-out: Average inhibition %, planktonic cells turbidity): 13.6 ± 13.1%
inhibition at 10 µM [1, 5]: 31.9 ± 24.6%
inhibition at 10 µM [1, 6]: 40.8 ± 18.5%
inhibition at 15 µM [1, 7]: 53.1 ± 42.8%
inhibition at 15 µM [1, 8]: 47.2 ± 50%
inhibition at 25 µM [1, 9]: 92 ± 5.9%
inhibition at 25 µM [1, 10]: 97.4 ± 2.6%
MIC ([1]; read-out: MIC (S. aureus)): 15 to 25 µM (≈ 4.85 to 8.09 µg/mL)
Average inhibition %, biofilms viability ([1]; 5 µM): 22.4 ± 5.4%
Average inhibition %, planktonic cells viability ([1]; 5 µM): 0 ± 0%
Average inhibition %, biofilms viability ([1]; 10 µM): 16.7 ± 15%
Average inhibition %, planktonic cells viability ([1]; 10 µM): 20.3 ± 20.7%
Average inhibition %, biofilms viability ([1]; 15 µM): 48.8 ± 44.2%
Average inhibition %, planktonic cells viability ([1]; 15 µM): 36.9 ± 54.3%
Average inhibition %, biofilms viability ([1]; 25 µM): 99.5 ± 0.8%
Average inhibition %, planktonic cells viability ([1]; 25 µM): 99.7 ± 0.2%
Average inhibition %, biofilms viability ([2]; 50 µM): 27.9 ± 25.6%
Average inhibition %, planktonic cells viability ([2]; 50 µM): 28 ± 9%
Average inhibition %, biofilms viability ([2]; 100 µM): 20.3 ± 9.9%
Average inhibition %, planktonic cells viability ([2]; 100 µM): 76.1 ± 19.4%
Average inhibition %, biofilms viability ([2]; 150 µM): 17 ± 12.1%
Average inhibition %, planktonic cells viability ([2]; 150 µM): 88 ± 8.4%
Average inhibition %, biofilms viability ([2]; 200 µM): 12.2 ± 5.8%
Average inhibition %, planktonic cells viability ([2]; 200 µM): 93.5 ± 0.6%
MIC ([2]; ATCC9027, pre-exposure, Inactive = no activity up to 200 μM, > = some inhibition but no MIC reached, read-out: MIC P. aeruginosa ATCC 9027): > 200 µM
MIC ([2]; ATCC9027, supplementary molecular formula strings sheet, read-out: MIC (P. aeruginosa)): > 200 µM
inhibition at 50 µM [2, 11]: 14.7 ± 10.8%
inhibition at 50 µM [2, 12]: 18.6 ± 7.4%
inhibition at 100 µM ([2]; 100 µM, read-out: Average inhibition %, biofilms biomass): 29.1 ± 19.9%
inhibition at 100 µM ([2]; 100 µM, read-out: Average inhibition %, planktonic cells turbidity): 83.9 ± 2.6%
inhibition at 150 µM ([2]; 150 µM, read-out: Average inhibition %, biofilms biomass): 37.8 ± 2.9%
inhibition at 150 µM ([2]; 150 µM, read-out: Average inhibition %, planktonic cells turbidity): 85.6 ± 3.3%
inhibition at 200 µM ([2]; 200 µM, read-out: Average inhibition %, biofilms biomass): 36.9 ± 6.7%
inhibition at 200 µM ([2]; 200 µM, read-out: Average inhibition %, planktonic cells turbidity): 87.8 ± 4.2%
Average inhibition %, biofilms viability ([3]; 10 µM): 0 ± 0%
Average inhibition %, planktonic cells viability ([3]; 10 µM): 5.1 ± 0.7%
Average inhibition %, biofilms viability ([3]; 15 µM): 1.4 ± 1.2%
Average inhibition %, planktonic cells viability ([3]; 15 µM): 0 ± 0%
Average inhibition %, biofilms viability ([3]; 25 µM): 68.3 ± 27.4%
Average inhibition %, planktonic cells viability ([3]; 25 µM): 48.6 ± 48.9%
Average inhibition %, biofilms viability ([3]; 50 µM): 93.8 ± 1.3%
Average inhibition %, planktonic cells viability ([3]; 50 µM): 97.8 ± 0.3%
inhibition at 10 µM [3, 5]: 0%
inhibition at 10 µM [3, 6]: 0%
inhibition at 15 µM [3, 7]: 0%
inhibition at 15 µM [3, 8]: 0%
inhibition at 25 µM [3, 9]: 38.9 ± 34.1%
inhibition at 25 µM [3, 10]: 63.2 ± 30.2%
inhibition at 50 µM [3, 11]: 56.9 ± 19.5%
inhibition at 50 µM [3, 12]: 94.4 ± 2.3%
MIC ([3]; pre-exposure, Inactive = no activity up to 50 μM, > = some inhibition but no MIC reached, read-out: MIC A. baumannii NCTC 13423): > 50 µM
MIC ([3]; supplementary molecular formula strings sheet, read-out: MIC (A. baumannii)): > 50 µM
Average inhibition %, biofilms viability ([4]; 25 µM): 21 ± 14.6%
Average inhibition %, planktonic cells viability ([4]; 25 µM): 0.9 ± 1.6%
Average inhibition %, biofilms viability ([4]; 50 µM): 42.3 ± 5.5%
Average inhibition %, planktonic cells viability ([4]; 50 µM): 0 ± 0%
Average inhibition %, biofilms viability ([4]; 100 µM): 52.5 ± 9.2%
Average inhibition %, planktonic cells viability ([4]; 100 µM): 21.3 ± 18.5%
Average inhibition %, biofilms viability ([4]; 200 µM): 52 ± 9.4%
Average inhibition %, planktonic cells viability ([4]; 200 µM): 48.3 ± 23.5%
inhibition at 25 µM [4, 13]: 47.6 ± 0.5%
inhibition at 25 µM [4, 14]: 9.3 ± 10%
inhibition at 50 µM [4, 13]: 57.8 ± 6.5%
inhibition at 50 µM [4, 14]: 12.6 ± 10.9%
inhibition at 100 µM [4, 13]: 65.9 ± 12.5%
inhibition at 100 µM [4, 14]: 31.2 ± 10.9%
inhibition at 200 µM [4, 13]: 72.5 ± 9.8%
inhibition at 200 µM [4, 14]: 40 ± 13.2%
